Measured values as given in patent US8546375B2, “(3-(4-(aminomethyl)phenoxy or phenylthio)azetidin-1-yl)(5-phenyl-1,3,4-oxadiazol-2-yl)methanone compounds” (AstraZeneca AB, priority 2010, dated 2013).
Structures can show the parent of a compound that is named as a salt.

target: T1, Melanin Concentrating Hormone Receptor 1 (MCHR1) (Homo sapiens, UniProt Q99705); assay: MCHR1 Receptor Activation Assay (GTPγ^35S); type: biochemical; conditions: read-out: GTPγ^35S IC50
T1 construct: expressed in transfected cells
T1 sequence (Q99705 whole entry): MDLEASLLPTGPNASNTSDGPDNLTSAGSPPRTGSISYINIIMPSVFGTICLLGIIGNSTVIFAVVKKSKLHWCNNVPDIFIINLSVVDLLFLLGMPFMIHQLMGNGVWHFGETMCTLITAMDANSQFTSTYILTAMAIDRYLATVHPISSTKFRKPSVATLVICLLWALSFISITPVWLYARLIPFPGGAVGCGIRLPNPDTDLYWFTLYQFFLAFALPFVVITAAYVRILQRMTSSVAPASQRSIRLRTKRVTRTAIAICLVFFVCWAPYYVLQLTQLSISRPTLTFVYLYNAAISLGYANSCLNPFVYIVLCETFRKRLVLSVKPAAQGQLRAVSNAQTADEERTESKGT

| IC50 [nM] | Structure (SMILES) |
| --- | --- |
| 7 | O=C(c1nnc(-c2ccc(Cl)cc2)o1)N1CC(Oc2ccc(CN3CCCC3)cc2)C1 [Example 1, (5-(4-Chlorophenyl)-1,3,4-oxadiazol-2-yl)(3-(4-(pyrrolidin-1-ylmethyl)phenoxy)azetidin-1-yl)methanone] |
| 27 | O=C(c1nnc(-c2ccccc2)o1)N1CC(Oc2ccc(CN3CCCC3)cc2)C1 [Example 3, (5-Phenyl-1,3,4-oxadiazol-2-yl)(3-(4-(pyrrolidin-1-ylmethyl)phenoxy)azetidin-1-yl)methanone] |
| 20 | O=C(c1nnc(-c2ccc(F)cc2)o1)N1CC(Oc2ccc(CN3CCCC3)cc2)C1 [Example 4, (5-(4-Fluorophenyl)-1,3,4-oxadiazol-2-yl)(3-(4-(pyrrolidin-1-ylmethyl)phenoxy)azetidin-1-yl)methanone] |
| 15 | O=C(c1nnc(-c2ccc(C(F)(F)F)cc2)o1)N1CC(Oc2ccc(CN3CCCC3)cc2)C1 [Example 5, (3-(4-(Pyrrolidin-1-ylmethyl)phenoxy)azetidin-1-yl)(5-(4-(trifluoromethyl)phenyl)-1,3,4-oxadiazol-2-yl)methanone formate] |
| 19 | Cc1ccc(-c2nnc(C(=O)N3CC(Oc4ccc(CN5CCCC5)cc4)C3)o2)cc1 [Example 6, (3-(4-(Pyrrolidin-1-ylmethyl)phenoxy)azetidin-1-yl)(5-p-tolyl-1,3,4-oxadiazol-2-yl)methanone hydrochloride] |
| 21 | COc1cc(OC2CN(C(=O)c3nnc(-c4ccccc4)o3)C2)ccc1CN1CCOCC1 [Example 7, (3-(3-Methoxy-4-(morpholinomethyl)phenoxy)azetidin-1-yl)(5-phenyl-1,3,4-oxadiazol-2-yl)methanone] |
| 44 | Cc1cc(CN2CCN(C)CC2)ccc1OC1CN(C(=O)c2nnc(-c3ccccc3)o2)C1 [Example 9, (3-(2-Methyl-4-((4-methylpiperazin-1-yl)methyl)phenoxy)azetidin-1-yl)(5-phenyl-1,3,4-oxadiazol-2-yl)methanone] |
| 41 | COc1ccc(-c2nnc(C(=O)N3CC(Oc4ccc(CN5CCN(C)CC5)cc4C)C3)o2)cc1 [Example 10, (5-(4-Methoxyphenyl)-1,3,4-oxadiazol-2-yl)(3-(2-methyl-4-((4-methylpiperazin-1-yl)methyl)phenoxy)azetidin-1-yl)methanone] |
| 51 | Cc1ccc(-c2nnc(C(=O)N3CC(Oc4ccc(CN5CCN(C)CC5)cc4C)C3)o2)cc1 [Example 11, (3-(2-Methyl-4-((4-methylpiperazin-1-yl)methyl)phenoxy)azetidin-1-yl)(5-p-tolyl-1,3,4-oxadiazol-2-yl)methanone] |
| 30 | COc1ccc(-c2nnc(C(=O)N3CC(Oc4ccc(CN5CCOCC5)cc4C)C3)o2)cc1 [Example 12, (5-(4-Methoxyphenyl)-1,3,4-oxadiazol-2-yl)(3-(2-methyl-4-(morpholinomethyl)-phenoxy)azetidin-1-yl)methanone] |
| 29 | Cc1ccc(-c2nnc(C(=O)N3CC(Oc4ccc(CN5CCOCC5)cc4C)C3)o2)cc1 [Example 13, (3-(2-Methyl-4-(morpholinomethyl)phenoxy)azetidin-1-yl)(5-p-tolyl-1,3,4-oxadiazol-2-yl)methanone] |
| 30 | Cc1cc(CN2CCOCC2)ccc1OC1CN(C(=O)c2nnc(-c3ccccc3)o2)C1 [Example 14, (3-(2-Methyl-4-(morpholinomethyl)phenoxy)azetidin-1-yl)(5-phenyl-1,3,4-oxadiazol-2-yl)methanone] |
| 10 | Cc1cc(CN2CCOCC2)ccc1OC1CN(C(=O)c2nnc(-c3ccc(Cl)cc3)o2)C1 [Example 15, (5-(4-Chlorophenyl)-1,3,4-oxadiazol-2-yl)(3-(2-methyl-4-(morpholinomethyl)phenoxy)azetidin-1-yl)methanone] |
| 25 | COc1ccc(-c2nnc(C(=O)N3CC(Oc4ccc(CN(C)C)cc4C)C3)o2)cc1 [Example 17, (3-(4-((Dimethylamino)methyl)-2-methylphenoxy)azetidin-1-yl)(5-(4-methoxyphenyl)-1,3,4-oxadiazol-2-yl)methanone] |
| 25 | Cc1ccc(-c2nnc(C(=O)N3CC(Oc4ccc(CN(C)C)cc4C)C3)o2)cc1 [Example 18, (3-(4-((Dimethylamino)methyl)-2-methylphenoxy)azetidin-1-yl)(5-p-tolyl-1,3,4-oxadiazol-2-yl)methanone] |
| 6.5 | Cc1cc(CN2CCCC2)ccc1OC1CN(C(=O)c2nnc(-c3ccc(Cl)cc3)o2)C1 [Example 19, (5-(4-Chlorophenyl)-1,3,4-oxadiazol-2-yl)(3-(2-methyl-4-(pyrrolidin-1-ylmethyl)phenoxy)azetidin-1-yl)methanone] |
| 24 | COc1ccc(-c2nnc(C(=O)N3CC(Oc4ccc(CN(C)C)c(C)c4)C3)o2)cc1 [Example 20, (3-(4-((Dimethylamino)methyl)-3-methylphenoxy)azetidin-1-yl)(5-(4-methoxyphenyl)-1,3,4-oxadiazol-2-yl)methanone] |
| 25 | Cc1ccc(-c2nnc(C(=O)N3CC(Oc4ccc(CN(C)C)c(C)c4)C3)o2)cc1 [Example 22, (3-(4-((Dimethylamino)methyl)-3-methylphenoxy)azetidin-1-yl)(5-p-tolyl-1,3,4-oxadiazol-2-yl)methanone] |
| 99 | CC(=O)N1CCN(Cc2ccc(OC3CN(C(=O)c4nnc(-c5ccccc5)o4)C3)cc2)CC1 [Example 23, 1-(4-(4-(1-(5-Phenyl-1,3,4-oxadiazole-2-carbonyl)azetidin-3-yloxy)benzyl)piperazin-1-yl)ethanone] |
| 44 | COc1ccc(-c2nnc(C(=O)N3CC(Oc4ccc(CN5CCN(C(C)=O)CC5)cc4)C3)o2)cc1 [Example 24, 1-(4-(4-(1-(5-(4-Methoxyphenyl)-1,3,4-oxadiazole-2-carbonyl)azetidin-3-yloxy)benzyl)piperazin-1-yl)ethanone] |
| 34 | CC(=O)N1CCN(Cc2ccc(OC3CN(C(=O)c4nnc(-c5ccc(Cl)cc5)o4)C3)cc2)CC1 [Example 25, 1-(4-(4-(1-(5-(4-Chlorophenyl)-1,3,4-oxadiazole-2-carbonyl)azetidin-3-yloxy)benzyl)piperazin-1-yl)ethanone] |
| 30 | CN(C)Cc1ccc(OC2CN(C(=O)c3nnc(-c4ccccc4)o3)C2)cc1F [Example 26, (3-(4-((Dimethylamino)methyl)-3-fluorophenoxy)azetidin-1-yl)(5-phenyl-1,3,4-oxadiazol-2-yl)methanone] |
| 21 | COc1ccc(-c2nnc(C(=O)N3CC(Oc4ccc(CN(C)C)c(F)c4)C3)o2)cc1 [Example 27, (3-(4-((Dimethylamino)methyl)-3-fluorophenoxy)azetidin-1-yl)(5-(4-methoxyphenyl)-1,3,4-oxadiazol-2-yl)methanone] |
| 27 | Cc1ccc(-c2nnc(C(=O)N3CC(Oc4ccc(CN(C)C)c(F)c4)C3)o2)cc1 [Example 28, (3-(4-((Dimethylamino)methyl)-3-fluorophenoxy)azetidin-1-yl)(5-p-tolyl-1,3,4-oxadiazol-2-yl)methanone] |
| 86 | CN1CCN(Cc2ccc(OC3CN(C(=O)c4nnc(-c5ccccc5)o4)C3)cc2F)CC1 [Example 29, (3-(3-Fluoro-4-((4-methylpiperazin-1-yl)methyl)phenoxy)azetidin-1-yl)(5-phenyl-1,3,4-oxadiazol-2-yl)methanone] |
| 20 | O=C(c1nnc(-c2ccccc2)o1)N1CC(Oc2ccc(CN3CCCC3)c(F)c2)C1 [Example 31, (3-(3-Fluoro-4-(pyrrolidin-1-ylmethyl)phenoxy)azetidin-1-yl)(5-phenyl-1,3,4-oxadiazol-2-yl)methanone] |
| 15 | COc1ccc(-c2nnc(C(=O)N3CC(Oc4ccc(CN5CCCC5)c(F)c4)C3)o2)cc1 [Example 32, (3-(3-Fluoro-4-(pyrrolidin-1-ylmethyl)phenoxy)azetidin-1-yl)(5-(4-methoxyphenyl)-1,3,4-oxadiazol-2-yl)methanone] |
| 34 | CN(C)Cc1ccc(OC2CN(C(=O)c3nnc(-c4ccccc4)o3)C2)cc1 [Example 33, (3-(4-((Dimethylamino)methyl)phenoxy)azetidin-1-yl)(5-phenyl-1,3,4-oxadiazol-2-yl)methanone] |
| 18 | CSc1ccc(-c2nnc(C(=O)N3CC(Oc4ccc(CN(C)C)cc4)C3)o2)cc1 [Example 34, (3-(4-((Dimethylamino)methyl)phenoxy)azetidin-1-yl)(5-(4-(methylthio)phenyl)-1,3,4-oxadiazol-2-yl)methanone] |

same assay, conditions: separated enantiomers of Example 84 (chiral chromatography fractions); assay not given; read-out: IC50

| IC50 [nM] | Structure (SMILES) |
| --- | --- |
| 24 | COc1ccc(-c2nnc(C(=O)N3CC(Oc4ccc(CN5CCC(C)(CO)C5)cc4)C3)o2)cc1 (single isomer, unassigned; (+)) [Example E2, (+)(3-(4-((3-(hydroxymethyl)-3-methylpyrrolidin-1-yl)methyl)phenoxy)azetidin-1-yl)(5-(4-methoxyphenyl)-1,3,4-oxadiazol-2-yl)methanone] |
| 28 | COc1ccc(-c2nnc(C(=O)N3CC(Oc4ccc(CN5CCC(C)(CO)C5)cc4)C3)o2)cc1 (single isomer, unassigned; (-)) [Example E1, (−)(3-(4-((3-(hydroxymethyl)-3-methylpyrrolidin-1-yl)methyl)phenoxy)azetidin-1-yl)(5-(4-methoxyphenyl)-1,3,4-oxadiazol-2-yl)methanone] |

same assay, conditions: when tested in the above referenced assays (MCH binding assay; MCHR1 receptor activation assay); read-out: IC50 value

| IC50 [nM] | Structure (SMILES) |
| --- | --- |
| ≥ 100 | COc1ccc(-c2nnc(C(=O)N3CC(Oc4ccc(CN(C)C)c(OC(F)F)c4)C3)o2)cc1 [(3-(3-(difluoromethoxy)-4-((dimethylamino)methyl)phenoxy)azetidin-1-yl)(5-(4-methoxyphenyl)-1,3,4-oxadiazol-2-yl)methanone] |
| ≥ 100 | COCCN(CCOC)Cc1ccc(OC2CN(C(=O)c3nnc(-c4ccccc4)o3)C2)cc1 [(3-(4-((bis(2-methoxyethyl)amino)methyl)phenoxy)azetidin-1-yl)(5-phenyl-1,3,4-oxadiazol-2-yl)methanone] |
| ≥ 100 | O=C(c1nnc(-c2ccccc2)o1)N1CC(Oc2ccc(CNC3COC3)cc2)C1 [(3-(4-((oxetan-3-ylamino)methyl)phenoxy)azetidin-1-yl)(5-sphenyl-1,3,4-oxadiazol-2-yl)methanone] |
